These results are taken from ChEMBL document CHEMBL1122916, “Synthesis of xanthines as adenosine antagonists, a practical quantitative structure-activity relationship application” (J Med Chem, 1985).

Converted amounts (≈) assume the structure as drawn.

The nature of data set [1]: Solubility in 0.1 N HCl. The format is physicochemical.
A short description of data set [2]: Solubility in 0.1 M phosphate buffer at pH 7.4. The format is physicochemical.
The nature of data set [3]: Equilibrium constant (pKa) was determined. The data set is classed as physicochemical.
Data set [4] is described as follows: Partition coefficient (logP). The data set is classed as physicochemical. The settings on record: octanol/water.
The target of data set [5] is T1, Adenosine receptor A1 (Rattus norvegicus, UniProt P25099).
T1 sequence (P25099 whole entry): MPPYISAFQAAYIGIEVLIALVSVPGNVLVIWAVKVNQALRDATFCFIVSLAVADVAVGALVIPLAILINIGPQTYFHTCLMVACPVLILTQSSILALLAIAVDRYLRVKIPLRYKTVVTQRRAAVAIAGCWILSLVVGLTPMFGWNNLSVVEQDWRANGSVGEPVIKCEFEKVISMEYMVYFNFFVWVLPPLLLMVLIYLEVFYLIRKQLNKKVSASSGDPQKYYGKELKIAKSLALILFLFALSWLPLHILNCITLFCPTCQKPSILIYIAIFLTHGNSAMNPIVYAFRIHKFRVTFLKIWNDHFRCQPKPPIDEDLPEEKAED
Put plainly: Binding affinity against rat brain adenosine A1 receptor by using N6-[3H]- cyclohexyladenosine as radioligand.

The target of data set [6] is T2, Adenosine receptor A1 (Bos taurus, UniProt P28190).
T2 sequence (P28190 whole entry): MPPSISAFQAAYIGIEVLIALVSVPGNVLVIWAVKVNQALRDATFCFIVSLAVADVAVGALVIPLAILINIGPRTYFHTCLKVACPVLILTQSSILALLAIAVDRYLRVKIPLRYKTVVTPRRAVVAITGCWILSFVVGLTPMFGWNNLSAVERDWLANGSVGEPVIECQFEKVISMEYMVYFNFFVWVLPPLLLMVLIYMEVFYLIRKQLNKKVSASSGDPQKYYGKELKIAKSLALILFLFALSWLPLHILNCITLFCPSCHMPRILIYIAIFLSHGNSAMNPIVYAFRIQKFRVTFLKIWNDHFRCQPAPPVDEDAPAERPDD
Description: Binding affinity against bovine brain adenosine A1 receptor by using N6-[3H]- cyclohexyladenosine

The mark [7] stands for this setting: phosphate buffer, read-out: Solubility.

For `CCn1c(=O)c2[nH]c(-c3ccccc3)nc2n(CC)c1=O`, the solubility was 1 µg/mL (≈ 3.52 µM) in data set [1] and 6 µg/mL (≈ 21.1 µM) in data set [2] (buffer). In addition, the pKa in data set [3] is 9.1. Also, in data set [4], the log partition coefficient (logP) was 2.93.
With `CCCn1c(=O)c2nc(-c3ccc(S(=O)(=O)NCCN(C)C)cc3)[nH]c2n(CCC)c1=O`, the solubility in data set [1] was 19900 µg/mL (≈ 43000 µM); in data set [2] (buffer), 50 µg/mL (≈ 108 µM). In addition, the results for the IC50 on Adenosine receptor A1 [5] and on Adenosine receptor A1 [6] were 6.5 nM and 0.05 nM, respectively. Also, the pKa in data set [3] was found to be 6. In addition, in data set [4], the logP worked out at 3.32.
In the case of `CCn1c(=O)c2[nH]c(-c3ccc(S(=O)(=O)O)cc3)nc2n(CC)c1=O`, the results for the solubility in data set [1] and in data set [2] (setting [7]) were greater than 8000 µg/mL and greater than 57000 µg/mL, respectively. In addition, the IC50 on Adenosine receptor A1 [5] is 5540 nM; against Adenosine receptor A1 [6], 755 nM. The same compound registered a pKa in data set [3] of less than 2. The logP in data set [4] was -0.97.
For `CCn1c(=O)c2nc(-c3ccc(S(=O)(=O)NCCN(C)C)cc3)[nH]c2n(CC)c1=O`, the solubility in data set [1] was found to be 11500 µg/mL (≈ 26500 µM); in data set [2] (setting [7]) it was 110 µg/mL (≈ 253 µM). Further, the IC50 on Adenosine receptor A1 [5] was found to be 116 nM; at Adenosine receptor A1 [6], 3.3 nM. Also, the pKa in data set [3] was determined as 6.8. Also, the logP in data set [4] stood at 2.57.
In the case of `CCCn1c(=O)c2[nH]c(-c3ccc(S(=O)(=O)O)cc3)nc2n(CCC)c1=O`, the solubility in data set [1] was 1300 µg/mL (≈ 3310 µM); in data set [2] (setting [7]), greater than 24000 µg/mL. The concentration for half-maximal inhibition (IC50) on Adenosine receptor A1 [5] is 120 nM; at Adenosine receptor A1 [6] it was 3.4 nM. Also, the pKa in data set [3] is less than 2. In addition, in data set [4], the log partition coefficient (logP) was -0.03.
For `CCCn1c(=O)c2nc(-c3ccccc3N)[nH]c2n(CCC)c1=O`, the solubility is 4 µg/mL (≈ 12.2 µM) in data set [1] and less than 1 µg/mL in data set [2] (setting [7]). The values for the half-maximal inhibitory concentration (IC50) at Adenosine receptor A1 [5] and against Adenosine receptor A1 [6] were 41 nM and 0.75 nM, respectively. For the same compound, the pKa in data set [3] was found to be 9.1. Also, the log partition coefficient (logP) in data set [4] is 3.54.
